Experimental data from article PMC9731865, “Gambogic acid and juglone inhibit RNase P through distinct mechanisms” (The Journal of Biological Chemistry, 2022).
Read-outs that look alike come from different tables or passages of the source.

Assays:
PRORP1 wildtype = target: T1, PRORP1 wildtype (Arabidopsis thaliana, UniProt Q66GI4); assay: Time-dependent inactivation of PRORP1 by juglone (varying preincubation time); assay type: biochemical, A. thaliana; conditions: for kinact/KI: wildtype PRORP1, 0.3 nM PRORP1, 250 nM pre-tRNA, 22 °C
T1 construct: made in house
T1 sequence (Q66GI4 77-572): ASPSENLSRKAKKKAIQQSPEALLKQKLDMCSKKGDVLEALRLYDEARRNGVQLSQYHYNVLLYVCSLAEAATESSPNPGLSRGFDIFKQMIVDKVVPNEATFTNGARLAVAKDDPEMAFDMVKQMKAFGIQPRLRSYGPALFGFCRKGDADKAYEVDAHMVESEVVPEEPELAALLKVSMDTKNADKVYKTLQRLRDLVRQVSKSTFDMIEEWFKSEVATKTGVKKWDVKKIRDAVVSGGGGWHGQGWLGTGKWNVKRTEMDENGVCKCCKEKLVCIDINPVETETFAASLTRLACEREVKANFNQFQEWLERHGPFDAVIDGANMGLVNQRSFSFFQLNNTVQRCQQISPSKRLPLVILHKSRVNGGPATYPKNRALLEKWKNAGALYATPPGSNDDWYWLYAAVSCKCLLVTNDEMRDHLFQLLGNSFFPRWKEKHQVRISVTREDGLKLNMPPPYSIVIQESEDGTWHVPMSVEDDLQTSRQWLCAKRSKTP
Protocol: A global fit of the data (Equations 5 and 6) was used to calculate kinact/KI. […] The errors shown are the standard errors obtained from fitting Equation 5 to the data in A independently. Reactions were performed with 0.3 nM PRORP1, 250 nM pre-tRNA containing 40 nM Fl-pre-tRNA, at 22 °C, in 30 mM MOPS, pH 7.8, 1 mM TCEP, 5 mM MgCl2, 500 nM (12 μg/ml) yeast tRNA, 5 mM spermidine, 6.65 μg/ml BSA, and 0.01% NP-40. Data are fit to determine kinact/KI.
For the analysis of juglone, PRORP1 activity was measured with varying preincubation time and juglone concentration. Varying concentrations of juglone were preincubated with a 35 μl of PRORP1 from 2 min to 4 h in 30 mM MOPS pH 7.8, 5 mM MgCl2, 100 mM NaCl, 1 mM TCEP, 500 nM (12 μg/ml) yeast tRNA^mix, 5 mM spermidine, 6.65 μg/ml BSA, and 0.01% NP-40. The concentration of DMSO in each reaction was held constant at 1%. Reactions were initiated by addition of 5 μl of substrate for a final working concentration of 0.3 nM PRORP1 and 250 nM pre-tRNA, a substrate concentration well below the KM value. The dependence of the initial velocity on the preincubation time was fit to a single exponential decay equation (Equation 5) to determine kinact,app at each juglone concentration. The values for kinact,app for various juglone concentrations (represented by [I]) were fit with Equation 6 to determine kinact/KI, assuming a 2-step inactivation mechanism.(5) Activity(%)=Ae^−(kinact,app)t (6) kinact,app=kinact/KI(KI[I]/KI+[I])

PRORP1 C353A = target: T2, PRORP1 C353A (Arabidopsis thaliana, UniProt Q66GI4, C353A); assay: Time-dependent inactivation by juglone, PRORP1 C353A; assay type: biochemical, A. thaliana
T2 construct: made in house
Protocol: (§1) Given the multiple sites of cysteine modification, we wanted to identify the one(s) that potentially play a significant role in PRORP1 inactivation. Therefore, several cysteine-to-alanine point mutants were expressed, purified, and subjected to inhibition studies. We tested both single-site (C353A and C373A) and double-site (C353A/C373A and C222A/C353A) mutations. […] The value of kinact,app for each PRORP1 at varied concentrations of juglone was determined by fitting a single exponential equation (Equation 5) to the data (Fig. 10A). Unexpectedly, the values of kinact/KI (reflecting the inhibition of E + I to form EI∗) increased for a number of the PRORP1 variants: wildtype (0.001 ± 0.00004 μM^-1 min^-1), C353A (0.005 ± 0.002 μM^−1 min^−1), C373A (0.002 ± 0.0004 μM^-1 min^−1), C222A/C353A (0.003 ± 0.0001 μM^−1 min^−1), and C353A/C373A (0.0008 ± 0.0002 μM^-1 min^−1). These modest increases could be due to a decrease in the KI value or an increase in the value of kinact. […] Although, we cannot discount the possibility, however unlikely, that juglone may employ a mode of inhibition beyond cysteine residue modification that our crystal structures fail to capture.
(§2) Figure 10 Effects of PRORP1 cysteine mutations on juglone inactivation. […]
(§3) For the analysis of juglone, PRORP1 activity was measured with varying preincubation time and juglone concentration. […]

PRORP1 C222A/C353A = target: T3, PRORP1 C222A/C353A (Arabidopsis thaliana, UniProt Q66GI4, C222A/C353A); assay: Time-dependent inactivation by juglone, PRORP1 C222A/C353A; assay type: biochemical, A. thaliana
T3 construct: made in house
Protocol: as §1, §2, §3

PRORP1 C353A/C373A = target: T4, PRORP1 C353A/C373A (Arabidopsis thaliana, UniProt Q66GI4, C353A/C373A); assay: Time-dependent inactivation by juglone, PRORP1 C353A/C373A; assay type: biochemical, A. thaliana
T4 construct: made in house
Protocol: as §1, §2, §3

T. maritima RNase P = target: T. maritima RNase P; parameters: method as in PMID 30997498; conditions: cited from earlier work

T3 sequence (Q66GI4 77-572 C222A/C353A): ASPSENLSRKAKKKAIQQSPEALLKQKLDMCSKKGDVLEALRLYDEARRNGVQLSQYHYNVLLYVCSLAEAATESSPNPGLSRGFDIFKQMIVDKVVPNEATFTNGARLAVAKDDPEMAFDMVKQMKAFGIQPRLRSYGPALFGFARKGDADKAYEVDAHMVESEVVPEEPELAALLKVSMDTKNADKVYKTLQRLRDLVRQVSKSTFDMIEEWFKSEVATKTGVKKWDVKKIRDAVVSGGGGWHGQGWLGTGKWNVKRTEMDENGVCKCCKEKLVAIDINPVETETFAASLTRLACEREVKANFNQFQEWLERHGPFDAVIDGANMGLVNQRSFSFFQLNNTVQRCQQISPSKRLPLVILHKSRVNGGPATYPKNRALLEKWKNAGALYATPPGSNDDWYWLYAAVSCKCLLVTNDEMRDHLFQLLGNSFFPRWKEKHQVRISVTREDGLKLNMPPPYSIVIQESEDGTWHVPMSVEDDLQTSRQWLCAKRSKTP
T4 sequence (Q66GI4 77-572 C353A/C373A): as the sequence (Q66GI4 77-572 C222A/C353A) above, with A146C, C297A counted along it
T2 sequence (Q66GI4 77-572 C353A): as the sequence (Q66GI4 77-572 C222A/C353A) above, with A146C counted along it

O=C1C=CC(=O)c2c(O)cccc21 [juglone, 5-hydroxy-1,4-naphthalenedione]
Ki (PRORP1 wildtype): 12.5 ± 2.7 µM | decrease in initial activity (extrapolated to 0 min preincubation) (PRORP1 wildtype; 10 μM juglone (highest concentration)): 50% | Hill coefficient n of the fit to 0-min preincubation data (PRORP1 wildtype; Equation 1): 1 | mode of inhibition of PRORP1 (PRORP1 wildtype; inhibition depends on preincubation time): time-dependent inhibitor | kinact/KI (PRORP1 wildtype; read-out: kinact/KI, global fit using Equations 5 and 6 (converted)): 16.7 M⁻¹ s⁻¹ | kinact/KI (PRORP1 wildtype; read-out: kinact/KI, hyperbolic fit using Equation 6 (converted)): 16.7 M⁻¹ s⁻¹ | Ki (PRORP1 C353A): > 10 µM | kinact/KI (PRORP1 C353A): 83.3 M⁻¹ s⁻¹ | kinact/KI (PRORP1 C222A/C353A): 50 M⁻¹ s⁻¹ | inhibition at time 0 (PRORP1 C222A/C353A; double-cysteine mutation (C222A/C353A)): not observed | kinact/KI (PRORP1 C353A/C373A): 13.3 M⁻¹ s⁻¹ | inhibition at time 0 (PRORP1 C353A/C373A; double-cysteine mutation (C353A/C373A)): not observed | IC50 (T. maritima RNase P): 12.8 µM
